Test results taken from patent publication US10752609B2, “GSK-3 inhibitors” (priority 2016, dated 2020).

Columns and labels:
[1] = biological target: GSK3α (Homo sapiens, UniProt P49840); test: GSK3α kinase assay (Caliper LabChip3000 mobility shift, fluoresceinated peptide substrate)
[2] = biological target: GSK3β (Homo sapiens, UniProt P49841); test: GSK3β kinase assay (Caliper LabChip3000 mobility shift, fluoresceinated peptide substrate); format: biochemical; conditions: 250 pM enzyme, 20 uM ATP, 1.5 uM peptide, 20 hours room temperature; first value of cell GSK3β/GSK3α; read-out: GSK3β (nM), IC50
GSK3β, sequence (P49841 whole entry, species assumed): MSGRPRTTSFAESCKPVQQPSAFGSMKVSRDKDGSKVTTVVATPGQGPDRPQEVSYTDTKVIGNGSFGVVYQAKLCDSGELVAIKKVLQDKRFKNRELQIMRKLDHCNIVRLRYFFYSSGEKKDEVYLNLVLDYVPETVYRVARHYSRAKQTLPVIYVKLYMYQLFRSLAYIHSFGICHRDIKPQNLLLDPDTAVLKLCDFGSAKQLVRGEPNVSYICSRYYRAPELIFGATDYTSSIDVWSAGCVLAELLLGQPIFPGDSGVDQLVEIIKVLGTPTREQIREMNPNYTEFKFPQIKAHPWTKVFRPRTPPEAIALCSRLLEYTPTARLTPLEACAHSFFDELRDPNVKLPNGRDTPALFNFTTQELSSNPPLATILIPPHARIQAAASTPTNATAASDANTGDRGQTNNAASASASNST
Method: The kinase assay was performed in V-bottom 384-well plates. […] The reaction was incubated at room temperature for 20 hours and terminated by adding 45 μl of 35 mM EDTA to each sample. The reaction mixture was analyzed on the Caliper LabChip3000 (Caliper, Hopkinton, Mass.) by electrophoretic separation of the unphosphorylated substrate and phosphorylated product. […] Compounds were dissolved at 10 mM in dimethylsulfoxide (DMSO) and evaluated at eleven concentrations. IC50 values were derived by non-linear regression analysis.

[3] = test system: pTau; test: pTau assay (no method described); format: cell-based

GSK3α, sequence (P49840 whole entry, species assumed): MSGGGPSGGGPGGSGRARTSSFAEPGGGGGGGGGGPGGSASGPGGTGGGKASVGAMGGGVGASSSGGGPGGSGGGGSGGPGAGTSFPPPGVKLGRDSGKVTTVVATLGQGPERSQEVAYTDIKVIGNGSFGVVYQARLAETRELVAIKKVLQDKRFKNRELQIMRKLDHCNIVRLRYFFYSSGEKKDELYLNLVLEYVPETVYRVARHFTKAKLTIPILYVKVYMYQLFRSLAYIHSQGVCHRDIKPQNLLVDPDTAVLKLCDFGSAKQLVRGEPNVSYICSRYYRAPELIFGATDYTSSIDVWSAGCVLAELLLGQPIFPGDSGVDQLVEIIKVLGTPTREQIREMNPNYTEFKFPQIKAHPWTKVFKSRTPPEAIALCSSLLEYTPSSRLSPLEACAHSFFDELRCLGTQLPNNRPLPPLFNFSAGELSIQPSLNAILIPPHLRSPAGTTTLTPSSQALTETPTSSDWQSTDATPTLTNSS

SMILES	IC50 [1]	IC50 [2]	IC50 [3]
O=C(Nc1cnccc1OCC(F)(F)F)c1ccnc(Nc2ccc(F)cc2)n1 [Example 55, 2-((4-Fluorophenyl)amino)-N-(4-(2,2,2-trifluoroethoxy)pyridin-3-yl)pyrimidine-4-carboxamide]	0.16 nM	0.26 nM	7.6 nM
O=C(Nc1cnccc1OCC(F)(F)F)c1ccnc(Nc2ccc(Cl)cc2)n1 [Example 56, 2-((4-Chlorophenyl)amino)-N-(4-(2,2,2-trifluoroethoxy)pyridin-3-yl)pyrimidine-4-carboxamide]	0.15 nM	0.25 nM	5.9 nM
N#Cc1ccc(Nc2nccc(C(=O)Nc3cnccc3OCC(F)(F)F)n2)cc1 [Example 57, 2-((4-Cyanophenyl)amino)-N-(4-(2,2,2-trifluoroethoxy)pyridin-3-yl)pyrimidine-4-carboxamide]	0.07 nM	0.08 nM	1.4 nM
O=C(Nc1cnccc1OCC(F)(F)F)c1ccnc(Nc2ccc(C(F)(F)F)cc2)n1 [Example 58, N-(4-(2,2,2-Trifluoroethoxy)pyridin-3-yl)-2-((4-(trifluoromethyl)phenyl)amino)pyrimidine-4-carboxamide]	0.18 nM	0.3 nM	10 nM
O=C(Nc1cnccc1OCC(F)(F)F)c1ccnc(Nc2ccc(OC(F)(F)F)cc2)n1 [Example 59, N-(4-(2,2,2-Trifluoroethoxy)pyridin-3-yl)-2-((4-(trifluoromethoxy)phenyl)amino)pyrimidine-4-carboxamide]	0.21 nM	0.18 nM	8.2 nM
O=C(Nc1cnccc1OCC(F)(F)F)c1ccnc(Nc2ccc(Cl)cc2F)n1 [Example 61, 2-((4-Chloro-2-fluorophenyl)amino)-N-(4-(2,2,2-trifluoroethoxy)pyridin-3-yl)pyrimidine-4-carboxamide]	0.39 nM	0.72 nM	230 nM
COc1ccc(Nc2nccc(C(=O)Nc3cnccc3OCC(F)(F)F)n2)cc1F [Example 62, 2-((3-Fluoro-4-methoxyphenyl)amino)-N-(4-(2,2,2-trifluoroethoxy)pyridin-3-yl)pyrimidine-4-carboxamide]	0.09 nM	0.08 nM	230 nM
O=C(Nc1cnccc1OCC(F)(F)F)c1ccnc(Nc2ccc(OC(F)F)nc2)n1 [Example 63, 2-((6-(Difluoromethoxy)pyridin-3-yl)amino)-N-(4-(2,2,2-trifluoroethoxy)pyridin-3-yl)pyrimidine-4-carboxamide]	0.13 nM	0.18 nM	3 nM
O=C(Nc1cnccc1OCC(F)(F)F)c1ccnc(Nc2ccc(C(F)(F)F)nc2)n1 [Example 64, N-(4-(2,2,2-Trifluoroethoxy)pyridin-3-yl)-2-((6-(trifluoromethyl)pyridin-3-yl)amino)pyrimidine-4-carboxamide]	0.19 nM	0.2 nM	8.5 nM
CC(C)OCCCNc1nccc(C(=O)Nc2cnccc2OCC(F)(F)F)n1 [Example 65, 2-((3-Isopropoxypropyl)amino)-N-(4-(2,2,2-trifluoroethoxy)pyridin-3-yl)pyrimidine-4-carboxamide]	1.4 nM	2 nM	86 nM
N#Cc1ccc(Nc2nccc(C(=O)Nc3cncnc3OCC(F)(F)F)n2)cc1 [Example 66, 2-((4-Cyanophenyl)amino)-N-(4-(2,2,2-trifluoroethoxy)pyrimidin-5-yl)pyrimidine-4-carboxamide]	0.67 nM	1 nM	22 nM
O=C(Nc1cncnc1OCC(F)(F)F)c1ccnc(Nc2ccc(Cl)cc2)n1 [Example 67, 2-((4-Chlorophenyl)amino)-N-(4-(2,2,2-trifluoroethoxy)pyrimidin-5-yl)pyrimidine-4-carboxamide]	0.36 nM	0.97 nM	90 nM
O=C(Nc1cncnc1OCC(F)(F)F)c1ccnc(Nc2ccc(C(F)(F)F)cc2)n1 [Example 68, N-(4-(2,2,2-Trifluoroethoxy)pyrimidin-5-yl)-2-((4-(trifluoromethyl)phenyl)amino)pyrimidine-4-carboxamide]	1.3 nM	0.73 nM	90 nM
O=C(Nc1cncnc1OCC(F)(F)F)c1ccnc(Nc2ccc(OC(F)(F)F)cc2)n1 [Example 69, N-(4-(2,2,2-Trifluoroethoxy)pyrimidin-5-yl)-2-((4-(trifluoromethoxy)phenyl)amino)pyrimidine-4-carboxamide]	0.6 nM	0.56 nM	160 nM
O=C(Nc1cncnc1OCC(F)(F)F)c1ccnc(Nc2ccc(Cl)cc2F)n1 [Example 71, 2-((4-Chloro-2-fluorophenyl)amino)-N-(4-(2,2,2-trifluoroethoxy)pyrimidin-5-yl)pyrimidine-4-carboxamide]	4.2 nM	8 nM	1000 nM
O=C(Nc1cncnc1OCC(F)(F)F)c1ccnc(Nc2cc(F)c(Cl)cc2F)n1 [Example 72, 2-((4-Chloro-2,5-difluorophenyl)amino)-N-(4-(2,2,2-trifluoroethoxy)pyrimidin-5-yl)pyrimidine-4-carboxamide]	1.1 nM	1.6 nM	290 nM

SMILES	IC50 [1]	IC50 [2]	IC50 [3]
O=C(Nc1cncnc1OCC(F)(F)F)c1ccnc(Nc2ccc(OC(F)F)nc2)n1 [Example 73, 2-((6-(Difluoromethoxy)pyridin-3-yl)amino)-N-(4-(2,2,2-trifluoroethoxy)pyrimidin-5-yl)pyrimidine-4-carboxamide]	0.18 nM	0.26 nM	22 nM
CC(C)OCCCNc1nccc(C(=O)Nc2cncnc2OCC(F)(F)F)n1 [Example 74, 2-((3-Isopropoxypropyl)amino)-N-(4-(2,2,2-trifluoroethoxy)pyrimidin-5-yl)pyrimidine-4-carboxamide]	4.5 nM	5.9 nM	890 nM
O=C(Nc1cncnc1Nc1ccccc1)c1ccnc(Nc2ccccc2)n1 [Example 75, 2-(Phenylamino)-N-(4-(phenylamino)pyrimidin-5-yl)pyrimidine-4-carboxamide]	33 nM	48 nM	4500 nM
O=C(Nc1cncnc1OCC(F)(F)F)c1ccnc(Nc2ccccc2)n1 [Example 76, 2-(Phenylamino)-N-(4-(2,2,2-trifluoroethoxy)pyrimidin-5-yl)pyrimidine-4-carboxamide]	0.56 nM	1.1 nM	77 nM
COc1ccc(Nc2nccc(C(=O)Nc3cncnc3OCC(F)(F)F)n2)cc1 [Example 77, 2-((4-Methoxyphenyl)amino)-N-(4-(2,2,2-trifluoroethoxy)pyrimidin-5-yl)pyrimidine-4-carboxamide]	0.47 nM	0.79 nM	100 nM
COc1ccc(Nc2nccc(C(=O)Nc3cncnc3Nc3ccc(OC)cc3)n2)cc1 [Example 78, 2-Amino-N-(6-methylpyridin-3-yl)pyrimidine-4-carboxamide 2-((4-methoxyphenyl)amino)-N-(4-((4-methoxyphenyl)amino)pyrimidin-5-yl)pyrimidine-4-carboxamide]	15 nM	28 nM	2900 nM
O=C(Nc1cncnc1NCC1CC1)c1ccnc(Nc2ccccc2)n1 [Example 79, N-(4-((Cyclopropylmethyl)amino)pyrimidin-5-yl)-2-(phenylamino)pyrimidine-4-carboxamide]	98 nM	160 nM	8000 nM
O=C(Nc1cnccc1C1CCOCC1)c1ccnc(Nc2ccc(OC(F)F)nc2)n1 [Example 80, 2-((6-(Difluoromethoxy)pyridin-3-yl)amino)-N-(4-(tetrahydro-2H-pyran-4-yl)pyridin-3-yl)pyrimidine-4-carboxamide]	0.65 nM	2.4 nM	86 nM
O=C(Nc1cnccc1CN1CCCC1)c1ccnc(Nc2ccc(OC(F)F)nc2)n1 [Example 81, 2-((6-(Difluoromethoxy)pyridin-3-yl)amino)-N-(4-(pyrrolidin-1-ylmethyl)pyridin-3-yl)pyrimidine-4-carboxamide]	6.6 nM	9.8 nM	520 nM
N#Cc1ccc(Nc2nccc(C(=O)Nc3cnccc3OCC(F)(F)F)n2)cn1 [Example 82, 2-((6-Cyanopyridin-3-yl)amino)-N-(4-(2,2,2-trifluoroethoxy)pyridin-3-yl)pyrimidine-4-carboxamide]	0.09 nM	0.18 nM	2.8 nM
Cc1ccc(Nc2nccc(C(=O)Nc3cnccc3OCC(F)(F)F)n2)cn1 [Example 83, 2-((6-Methylpyridin-3-yl)amino)-N-(4-(2,2,2-trifluoroethoxy)pyridin-3-yl)pyrimidine-4-carboxamide]	0.16 nM	0.22 nM	5.1 nM
O=C(Nc1cnccc1OCC(F)(F)F)c1ccnc(Nc2ccc(F)nc2)n1 [Example 84, 2-((6-Fluoropyridin-3-yl)amino)-N-(4-(2,2,2-trifluoroethoxy)pyridin-3-yl)pyrimidine-4-carboxamide]	0.11 nM	0.24 nM	4.8 nM
O=C(Nc1cnccc1OCC(F)(F)F)c1ccnc(NC2CCCOC2)n1 (stereo not drawn) [Example 85, 2-((Tetrahydro-2H-pyran-3-yl)amino)-N-(4-(2,2,2-trifluoroethoxy)pyridin-3-yl)pyrimidine-4-carboxamide]	0.41 nM	0.51 nM	17 nM
O=C(Nc1cnccc1-c1ccccc1)c1ccnc(Nc2ccc(F)nc2)n1 [Example 86, 2-((6-Fluoropyridin-3-yl)amino)-N-(4-phenylpyridin-3-yl)pyrimidine-4-carboxamide]	0.4 nM	0.8 nM	68 nM
CC(=O)Nc1ccc(Nc2nccc(C(=O)Nc3cnccc3-c3ccccc3)n2)cn1 [Example 87, 2-((6-Acetamidopyridin-3-yl)amino)-N-(4-phenylpyridin-3-yl)pyrimidine-4-carboxamide]	0.92 nM	1.4 nM	150 nM
